Values of other authors, collected in patent US20010014685A1, “Injectable pharmaceutical composition for treatment and reversal of erectile dysfunction” (USA DOCTORS PRODUCTS, INC., priority 1998, published 2001).

System: erectile dysfunction
Conditions: injectable products including only prostaglandin-E1 / existing preparations

For `CCCCC[C@H](O)/C=C/[C@H]1[C@H](O)CC(=O)[C@@H]1CCCCCCC(=O)O` [prostaglandin-E1], which “efficacy for treatment of erectile dysfunction” value is on record?
Its value is no more than 50%.
